Here are results for 1 substance from US12622962B2 (priority 2019, dated 2026).

Test [1] concerns HBsAg antigen-specific IFN-γ. On the set-up: species or system C57BL/6(N) mice. To be noted: mouse, in vivo.
In test [2] the test system is HBcAg antigen-specific IFN-γ. On the set-up: species or system C57BL/6(N) mice. To be noted: mouse, in vivo.

With QS-21 [QS21], the “induced production level of HBsAg-specific IFN-γ, CpG T1 with different saponins” value in test [1] is given as “best effect”. In test [2], the “induced production level of HBcAg-specific IFN-γ, CpG T1 with different saponins” value is recorded as “best effect”.
